Where a SMILES comes first, the peptide text is derived from it. [ ]: non-standard residue; d: D form. pGlu = O=C1CC[C@@H](C(=O)O)N1
Tested on: diet-induced obese male mice
Assay: 3-day food intake and body weight under daily dosing
Type: in vivo, mouse
Conditions: for Food Intake: 50 mg/kg
Protocol: Fig. 5 Functional studies of […] in feeding and energy balance in mice. a Schematic of the primary amino acid sequence for full-length mouse GDF15 preproprotein and annotation of CAP-GDF15 sequence as well as the canonical GDF15 hormone sequence. b–d Food intake (b), respiratory exchange ratio (RER, c), and ambulatory activity (d) of 12–16-week diet-induced obese male mice following a single treatment of CAP-GDF15 (50 mg/kg, intraperitoneal) or vehicle control. e–g Food intake (e), RER (f), and ambulatory activity (g) of 12–16-week diet-induced obese male mice following a single treatment of scrambled CAP-GDF15 (50 mg/kg, intraperitoneal, scrambled sequence: pGlu-[…]-NH2) or vehicle control. h, i 3-day food intake (h) and body weight (i) of 12–16-week diet-induced obese male mice following treatment with CAP-GDF15 or scrambled CAP-GDF15 (50 mg/kg/day, IP), or vehicle control. Data are shown as means ± SEM. b–d, N = 12 mice/group; for e, f N = 8 mice/group; for h N = 7 food cages for vehicle and CAP-GDF15 groups and N = 5 for the scrambled peptide group; for i N = 14 mice for the vehicle group, N = 13 for the CAP-GDF15 group, and N = 5 for the scrambled peptide group. b–i injection occurred at time T = 0 (5:00 pm) and data were collected for the following 16 hrs. For (b-i), p values were calculated by two-way ANOVA. Source data are provided as a Source Data file.
Lastly, to determine whether the acute food intake suppressive effects of CAP-GDF15 would lead to long-term suppression of feeding and obesity, we administered CAP-GDF15 or scrambled CAP-GDF15 (50 mg/kg/day, IP), or vehicle control to diet-induced obese mice. Food intake and body weight were monitored over a three-day period. A durable suppression of food intake in CAP-GDF15-treated mice was over the three-day experiment (Vehicle, 7.3 ± 0.5 g/mouse; […], 4.1 ± 0.9 g/mouse/day, P < 0.05, Fig. 5h). Consequently, and as expected, an increasing reduction in body weight was also detected (Vehicle, +0.1 ± 0.3 g/mouse; CAP-GDF15, −1.9 ± 0.3 g/mouse, P < 0.001, Fig. 5i). Importantly, mice treated with the scrambled CAP-GDF15 peptide were indistinguishable in body weight or food intake from control mice (P > 0.05 versus vehicle-treated mice, Fig. 5h, i).
Animal experiments were performed according to a procedure approved by the Stanford University Administrative Panel on Laboratory Animal Care. Mice were maintained in 12-h light-dark cycles at 22 °C and about 50% relative humidity and fed a standard irradiated rodent diet. Where indicated, a high-fat diet (D12492, Research Diets 60% kcal from fat) was used. Male C57BL/6 J (stock number 000664) and male C57BL/6 J DIO mice were purchased from the Jackson Laboratory (stock number 380050). For studies in high-fat diet-fed mice, peptides were dissolved in 18:1:1 (by volume) of saline:Kolliphor EL (Sigma Aldrich):DMSO and administered to mice by intraperitoneal injections at a volume of 10 µl/g at the indicated doses for the indicated times. For lipopolysacchardide injection, LPS (Sigma, #L2880-10MG) was dissolved in saline and administered to mice at a volume of 5 µl/g at indicated dose. For fasting, food was removed from mice for 16 h. For running, a six-lane Columbus Instruments animal treadmill (product 1055-SRM-D65) was used with following 1 h protocol: 10 min at 6 m/min, 50 min at 18 m/min, and increase every 2 min by 2 m/min for the last 10 minutes, all at 12° incline. For all treatment experiments, mice were mock injected with the vehicle for 3–5 days until body weights were stabilized. Heparin plasma was harvested by submandibular bleed. For all experiments, mice were randomly assigned to treatment groups. Experimenters were not blinded to groups.

With `CC(C)C[C@H](NC(=O)[C@@H]1CCC(=O)N1)C(=O)N[C@@H](CCC(=O)O)C(=O)N[C@@H](CC(C)C)C(=O)N[C@@H](CCCNC(=N)N)C(=O)N[C@@H](CC(C)C)C(=O)N[C@@H](CCCNC(=N)N)C(=O)N[C@H](C(=O)N[C@@H](C)C(=O)N[C@@H](C)C(=O)NCC(=O)N[C@@H](CCCNC(=N)N)C(N)=O)C(C)C` [CAP-GDF15] ([pGlu]LELRLRVAAGR-NH2) the “Food Intake” value (24 h, individual animal 1) was 0.5 g, the “Food Intake” value (24 h, individual animal 2) was 2.2 g and the “Food Intake” value (24 h, individual animal 3) was 1.3 g. The “Food Intake” value (24 h, individual animal 4) was 1.4 g, the “Food Intake” value (24 h, individual animal 5) was 0.3 g and the “Food Intake” value (24 h, individual animal 6) was 0.825 g. The “Food Intake” value (24 h, individual animal 7) was 0.525 g, the “Food Intake” value (48 h, individual animal 1) was 1.2 g and the “Food Intake” value (48 h, individual animal 2) was 5 g. For the same compound, the “Food Intake” value (48 h, individual animal 3) was 2.9 g, the “Food Intake” value (48 h, individual animal 4) was 4.1 g and the “Food Intake” value (48 h, individual animal 5) was 0.6 g. The “Food Intake” value (48 h, individual animal 6) was 1.8 g, the “Food Intake” value (48 h, individual animal 7) was 1.325 g and the “Food Intake” value (72 h, individual animal 1) was 2.9 g. For the same compound, the “Food Intake” value (72 h, individual animal 2) was 7.8 g, the “Food Intake” value (72 h, individual animal 3) was 4.9 g and the “Food Intake” value (72 h, individual animal 4) was 6.7 g. For the same compound, the “Food Intake” value (72 h, individual animal 5) was 0.8 g, the “Food Intake” value (72 h, individual animal 6) was 2.95 g and the “Food Intake” value (72 h, individual animal 7) was 2.775 g. The “body weight change over three days” value (50 mg/kg/day IP, diet-induced obese mice, mean ± SEM, N = 13 mice) was −1.9 ± 0.3 g/mouse.

— PMC10709327, “A class of secreted mammalian peptides with potential to expand cell-cell communication” (Nature Communications, 2023)
